Data: patent publication US12691127B2, “Use of glucocorticoid receptor antagonists in combination with glucocorticoids to treat adrenal insufficiency” (Corcept Therapeutics, Inc., priority 2015, dated 2026)

How the values were obtained:
HPA axis = experiment: Case report: recovery of the HPA axis (ACTH, cortisol, DHEA levels) in a patient with secondary adrenal insufficiency; assay type: in vivo, human
Excerpt: The patient is a person who developed depression for which they were placed on various psychotropic medications. They developed progressive malaise, 25 pound weight gain, muscle weakness, easing bruising, hypertension and foot stress fracture. They underwent screening DEXA bone density scan because of their personal history of fracture and a family history of advanced osteoporosis and genetically confirmed hypophosphatasia in their parent. The DEXA bone density scan disclosed a T-score of −3.4 at the lumbar spine and −3.1 at the hip. […] Further testing for secondary causes of osteoporosis included 24-hour urinary free cortisol which was markedly elevated at 499 mcg/day (range 10-80 mcg/day). Plasma ACTH level was undetectable. […], they underwent uncomplicated right laparoscopic adrenalactomy and histopathology confirmed a 3.7 cm adrenal cortical adenoma. The patient underwent a unilateral procedure, leaving one adrenal gland intact. Post-operatively the patient was placed on hydrocortisone replacement, initially at a dose of 40 mg/day given in divided doses and gradually tapered to 30 mg/day over the following several months. One year after their adrenalectomy, their hydrocortisone had been further tapered to 15 mg/day, which remained their maintenance dose. During the ensuing 6 years after their adrenalectomy, the patient generally felt unwell with symptoms of episodic nausea, headaches, lightheadedness, mood swings and generalized weakness. Quarterly measurement of serum cortisol and plasma ACTH levels (performed after holding hydrocortisone for 18 hours) consistently yielded undetectable values for both parameters. During this 6 year period, they had one pregnancy, occurring 3 years after adrenalectomy and progressing to full-term delivery of a healthy child. They had two other hospitalizations (separated by 4 years) for near-syncope, malaise, nausea and vomiting (but without hypoglycemia or hypotension). Both episodes were treated with 48-hours of intravenous stress-doses of glucocorticoids and saline, followed by improvement of their symptoms and subsequent tapering of glucocorticoids to a replacement dose of hydrocortisone 15 mg/day. The failure of the HPA axis to recover six years after adrenalectomy (despite physiological steroid dosing) prompted magnetic resonance imaging of the sella to rule out structural abnormalities of the hypothalamus, infundibulum and pituitary. This MRI was unremarkable. At that time, after a balanced discussion of risk and benefit, mifepristone 150 mg every other day was initiated and the dose of hydrocortisone 15 mg/day was continued. Over the ensuing five months, the dose of mifepristone was gradually escalated to 300 mg every other day, then 300 mg daily and finally maintained at 600 mg daily. […] The dose of hydrocortisone was lowered and ultimately stopped 8 months after initiation of mifepristone. […] The pruritis was tolerable and managed with over the counter anti-histamines. At no point during treatment with mifepristone did the patient develop signs or symptoms of adrenal insufficiency. Their menses returned 3 weeks after discontinuation of mifepristone. [table] […] Recovery of the patient's HPA axis was achieved. The patient's ACTH and cortisol levels increased in response to the drug treatment.

[1] = Case report: tolerability and side effects of mifepristone in the patient; assay type: in vivo, human
Procedure: The failure of the HPA axis to recover six years after adrenalectomy (despite physiological steroid dosing) prompted magnetic resonance imaging of the sella to rule out structural abnormalities of the hypothalamus, infundibulum and pituitary. This MRI was unremarkable. At that time, after a balanced discussion of risk and benefit, mifepristone 150 mg every other day was initiated and the dose of hydrocortisone 15 mg/day was continued. Over the ensuing five months, the dose of mifepristone was gradually escalated to 300 mg every other day, then 300 mg daily and finally maintained at 600 mg daily. […] The dose of hydrocortisone was lowered and ultimately stopped 8 months after initiation of mifepristone. […] The pruritis was tolerable and managed with over the counter anti-histamines. At no point during treatment with mifepristone did the patient develop signs or symptoms of adrenal insufficiency. Their menses returned 3 weeks after discontinuation of mifepristone.

[2] = 6 years after adrenalectomy on hydrocortisone replacement alone (15 mg/day), after holding hydrocortisone for 18 hours
[3] = Month 0, Mife dose 0, HC dose 15 mg (before mifepristone)
[4] = Month 1, Mife 150 mg TIW, HC 15 mg
[5] = Month 3, Mife 300 mg TIW, HC 15 mg
[6] = Month 4, Mife 300 mg daily, HC 15 mg
[7] = Month 5, Mife 600 mg daily, HC 15 mg
[8] = Month 6, Mife 600 mg daily, HC 10 mg
[9] = Month 10, Mife 0, HC 0 (after completion of treatment)
[10] = Month 11, Mife 0, HC 0 (after completion of treatment)
[11] = patient, mifepristone up to 600 mg daily

C[C@]12CCC(=O)C=C1CC[C@@H]1[C@@H]2[C@@H](O)C[C@@]2(C)[C@H]1CC[C@]2(O)C(=O)CO [hydrocortisone]
plasma ACTH level, quarterly measurement (HPA axis; [2]): undetectable | serum cortisol level, quarterly measurement (HPA axis; [2]): undetectable | ACTH (HPA axis; [3]): 5 pg/mL | Cortisol (HPA axis; [3]): <1 µg/dL | DHEA (HPA axis; [3]): <0.05 ng/mL

CC#C[C@]1(O)CC[C@H]2[C@@H]3CCC4=CC(=O)CCC4=C3[C@@H](c3ccc(N(C)C)cc3)C[C@@]21C [mifepristone, 17-β-hydrox-11-β-(4-dimethyl-aminophenyl)17-α-(1-propynyl)estra-4,9-dien-3-one]
ACTH (HPA axis; [4]): 15 pg/mL | Cortisol (HPA axis; [4]): <1 µg/dL | DHEA (HPA axis; [4]): <0.05 ng/mL | ACTH (HPA axis; [5]): 18 pg/mL | Cortisol (HPA axis; [5]): <1 µg/dL | DHEA (HPA axis; [5]): <0.05 ng/mL | ACTH (HPA axis; [6]): 60 pg/mL | Cortisol (HPA axis; [6]): 3.6 µg/dL | DHEA (HPA axis; [6]): <0.05 ng/mL | ACTH (HPA axis; [7]): 78 pg/mL | Cortisol (HPA axis; [7]): 4.6 µg/dL | DHEA (HPA axis; [7]): <0.05 ng/mL | ACTH (HPA axis; [8]): 173 pg/mL | Cortisol (HPA axis; [8]): 10.5 µg/dL | DHEA (HPA axis; [8]): <0.05 ng/mL | ACTH (HPA axis; Month 8, Mife 300 mg TIW, HC 0): 126 pg/mL | Cortisol (HPA axis; Month 8, Mife 300 mg TIW, HC 0): 13.6 µg/dL | DHEA (HPA axis; Month 8, Mife 300 mg TIW, HC 0): <0.05 ng/mL | ACTH (HPA axis; [9]): 26 pg/mL | Cortisol (HPA axis; [9]): 13.5 µg/dL | DHEA (HPA axis; [9]): <0.05 ng/mL | ACTH (HPA axis; [10]): 45 pg/mL | Cortisol (HPA axis; [10]): 15.3 µg/dL | DHEA (HPA axis; [10]): 0.053 ng/mL | levels of ACTH and cortisol after completion of the treatment (HPA axis; after completion of hydrocortisone and mifepristone treatment): Normal levels of ACTH and cortisol were maintained | treatment outcome of secondary adrenal insufficiency (HPA axis; co-administration of hydrocortisone and mifepristone): successfully treated | recovery of the HPA axis (HPA axis; mifepristone escalated 150 mg every other day to 600 mg daily, with hydrocortisone 15 mg/day): rapid recovery of the HPA axis was noted | time to rise in ACTH into the supra-normal range after starting mifepristone (HPA axis; with hydrocortisone 15 mg/day): 4 months | signs or symptoms of adrenal insufficiency during treatment ([1]; during treatment with mifepristone): At no point | time to return of menses after discontinuation of mifepristone ([1]; human, in vivo): 3 weeks | side effects [1, 11]: amenorrhea and pruritis | tolerability [1, 11]: tolerated mifepristone remarkably well
